This note sets out measurements from patent US20070105873A1 (priority 2003, published 2007).

One assay has as its system Phytophthora infestans. The class given is in vivo. As to conditions: tomato cultivar Goldene Prinzessin, sprayed with 250 ppm a.i., infected next day, visual rating after 6 days; untreated 80.
The next assay has as its system Alternaria solani. The assay can be described thus: Persistency against early blight on tomatoes caused by Alternaria solani, protective treatment. Type of assay: in vivo. As to conditions: tomato cultivar Goldene Prinzessin, sprayed with 16 ppm a.i., infected only after seven days, rating after a further 5 days; untreated 90. On the procedure:
The active compounds were prepared separately as a stock solution with 0.25% by weight of active compound in acetone or DMSO. 1% by weight of the emulsifier Uniperol® EL (wetting agent having emulsifying and dispersing action based on ethoxylated alkylphenols) was added to this solution. The stock solutions of the active compounds were diluted with water to the stated concentration.
2. Persistency Against Early Blight on Tomatoes Caused by Alternaria solani, Protective Treatment
Leaves of potted plants of the cultivar “Goldene Prinzessin” were sprayed to runoff point with an aqueous suspension having the concentration of active compound stated below.
To test for persistency, the leaves were infected with an aqueous spore suspension of Alternaria solani in a 2% strength biomalt solution having a density of 0.17×10^6 spores/ml only after seven days. The plants were then placed in a water-vapor-saturated chamber at 20-22° C. After a further 5 days, the disease on the untreated, but infected control plants had developed to such an extent that the infection could be determined visually in %.

On to `CC(C)OC(=O)c1nc(Cl)c(-c2c(F)cc(F)cc2F)c(N[C@@H](C)C(F)(F)F)n1` [V-3, isopropyl 4-chloro-6-((S)-2,2,2-trifluoro-1-methylethylamino)-5-(2,4,6-trifluorophenyl)pyrimidine-2-carboxylate], for which, in the assay with Phytophthora infestans, the “infection at 250 ppm of a.i. (% leaf area)” value was 5 % leaf area.

On to `C[C@H](Nc1nc(C(N)=O)nc(Cl)c1-c1c(F)cc(F)cc1F)C(F)(F)F` [I-5, 4-chloro-6-((S)-2,2,2-trifluoro-1-methylethylamino)-5-(2,4,6-trifluorophenyl)-pyrimidine-2-carboxamide], for which, in the assay on Alternaria solani, the “infection at 16 ppm of a.i. (% leaf area)” value amounted to 30 % leaf area. Moreover, the “infection at 250 ppm of a.i. (% leaf area)” value in the assay with Phytophthora infestans is recorded as 0 % leaf area.
